{"source": "patent US20110152379A1", "about": "“COMPOSITION FOR CONTROL OF AGING AND/OR EXTENSION OF LIFE, CONTAINING DAPSONE AS ACTIVE INGREDIENT” (priority 2008, published 2011)", "key": {"[1]": {"test_system": "membrane potential of mitochondria", "test": "Membrane potential of mitochondria, DiOC6 assay", "format": "cell-based, human", "experimental": "The protein amount of mitochondria constituent complex was measured by using Western Blot using Complex I (20 kDa ND6 subunit), Complex II (30 kDa FeS, non-heme iron protein, SDHB), Complex III (47 kDa core protein 2), Complex IV (18 kDa subunit IV), Complex V (55 kDa subunit a ATP synthase), and the like. […] The membrane potential (Δψm) of mitochondria used DiOC6. […] Since then, the above fibroblast was treated with 40 nM of DiOC6 for 15 minutes. The results were measured by using Cary Eclipse Fluorescence Spectrophotometer (Varian, Calif., USA) and the excitation wavelength and emission wavelength were measured at 480 nm and 520 nm, respectively.\nThe change of membrane potential (Δψm) of mitochondria was measured by using a cationic dye, DiOC6 that is a specific fluorescent material for mitochondria. An aspect of the change was measured by using Fluorescence Spectrophotometer. The cell was cultured in 40 nM DiQC6 for 15 minutes and then the fluorescent material that was left was removed by using PBS. The analysis was performed by using Cary Eclipse fluorescence spectrophotometer (Varian, Calif., USA), and then the excitation wavelength was measured at 480 nm, and the emission wavelength was measured at 520 nm."}, "human diploid fibroblast": {"test_system": "human diploid fibroblast", "test": "Survival rate of human diploid fibroblast treated with PQ (CCK-8)", "conditions": "1 mM PQ for 48 hours without any pretreatments", "experimental": "The above cell was cultured by adding Cell Counting Kit-8 for 48 hours and then the survival ability of cell was measured. In addition, DPI (5 uM) was pretreated for 30 minutes and NAC (2 mM) was pretreated for 3 hours, and then 1 mM of PQ was treated as a positive control.\nThe evaluation of survival rate of cell was performed by using Counting Kit (CCK-8) from Dojindo Laboratory Company (Japan). The human diploid fibroblast was cultured at 96-well plate for 24 hours before treating. […] The absorbance was measured at 450 nm."}, "Escherichia coli OP50": {"test_system": "Escherichia coli OP50", "test": "Growth of OP50 bacteria with PABA and DDS", "format": "cell-based", "conditions": "PABA 10 uM added with DDS; FIG. 1", "experimental": "FIG. 1 is a graph showing the growth degree of bacteria by treating with PABA. […] In order to identify the effect of dapsone on the extending of lifespan, the experiment was performed in the following order. At this time, since dapsone is not a water-soluble material, E. coli was cultured in the medium including dapsone and then was used as a feed for C. elegans. […] The administration of dapsone was started after L4 stage that almost finishes the generation, and the experiment was performed as follows under the condition of 20° C. in order to provide the optimal growth environment: […]"}, "[2]": {"test": "DPPH radical scavenging activity in cell-free system", "format": "biochemical", "conditions": "0.1-100 uM; 200 uM DPPH; FIG. 25A", "experimental": "The radical scavenging activity was measured as the reducing power of\nDPPH included in methanol. […] DPPH is a stable free radical, has a thick purple color, and its absorbance is at 517 nm. However, if it reacts with an antioxidant, it has a pale yellow color. The reaction mixture was maintained for 30 minutes at a room temperature without light and then the absorbance was measured at 517 nm. The free radical scavenging activity was calculated as the suppression rate by using the following equation:\n% suppression=[(Absorbance of Control−Absorbance of Sample)/Control Absorbance]×100."}, "mitochondria": {"test_system": "mitochondria", "test": "Mitochondria structure staining with MitoTracker Red", "format": "cell-based, human", "conditions": "pretreated with DDS or DPI, then 1 mM PQ 24 hours; FIG. 30", "experimental": "The first photograph indicates the stained mitochondria of the non-treated human diploid fibroblast as a control, the second photograph indicates the stained mitochondria of the PQ-treated human diploid fibroblast, the third photograph indicates the stained mitochondria of the human diploid fibroblast that was pretreated with DDS and then was treated with PQ, and the final photograph indicates the stained mitochondria of the human diploid fibroblast that was treated with DPI and PQ together (by using Confocal process). The values of (A, B, C and D: ×4000) is means±SEM (n=3), # is p<0.005 relative CC; and * is p<0.005 relative C.\nThe human diploid fibroblasts were cultured at 24-well plate. After the above experiment materials, i.e., the human diploid fibroblasts, were pretreated and then were treated with PQ for 24 hours, the above cells were treated with MitoTracker Red CMXRos (50 nM), which is a staining material for mitochondria, at 37° C. for 30 minutes. The dye is a marker of function for marking mitochondria through marking a transmembrane potential of mitochondria in a cell. After culturing, the cells were washed with PBS and then fixed with 4% of paraformaldehyde at 4° C. for overnight. […] After washing, the cells were covered with a cover glass and visualized through a fluorescence microscope."}, "[3]": {"test_system": "mitochondria superoxide anion", "test": "Superoxide anion in mitochondria, MitoSOX Red", "format": "cell-based", "conditions": "human diploid fibroblast; 1 mM PQ 30 minutes; FIG. 24B", "experimental": "(§1) The cell was treated with 1 mM of PQ for 30 minutes, and then was cultured at 37° C. for 15 minutes after adding oxidant-sensitive fluorescent dyes (A) DHE (5 uM, cytosol specific) and (B) MitoSOX (5 uM, mitochondria specific), respectively. For identifying the change of fluorescence, the excitation and emission wavelength of DHE were measured at 515 and 590 nm and MitoSOX was measured at 520 and 580 nm by using a multiwell plate reader. The results were indicated by calculating the results of three experiments as a control rate (%). The statistical significant was expressed as *, # p<0.005; ** p<0.05.\nMitochondria superoxide anion was measured by using the fluorescence material, i.e., MitoSOX Red. […] The cell was twice washed with DPBS and the fluorescence was immediately measured at excitation wavelength 515 nm and emission wavelength 590 nm by using CEFS [Cary Eclipse fluorescence spectrophotometer (Varian, Calif., USA)] machine."}, "[4]": {"test_system": "cytosolic superoxide anion", "test": "Superoxide anion in cell (cytoplasm), DHE", "format": "cell-based", "conditions": "human diploid fibroblast; 1 mM PQ 30 minutes; FIG. 24A", "experimental": "as §1\nThe cell was twice washed with DPBS and Ethidium-DNA that fluoresces was immediately measured at excitation wavelength 515 nm and emission wavelength 590 nm by using Cary Eclipse fluorescence spectrophotometer (Varian, Calif., USA) machine."}}, "data": [{"smiles": "C[n+]1ccc(-c2cc[n+](C)cc2)cc1", "note": "[PQ, paraquat]", "values": [{"measurement": "membrane potential of mitochondria compared with the control", "setting": "[1]; human diploid fibroblast, 1 mM PQ for 24 hours", "value": 76.8, "unit": "%"}, {"measurement": "viability of human diploid fibroblast compared with the non-treated control", "setting": "human diploid fibroblast", "value": "about 58.8%"}]}, {"smiles": "Nc1ccc(C(=O)O)cc1", "note": "[PABA, para-aminobenzoic acid]", "values": [{"measurement": "growth rate of bacteria relative to control", "setting": "Escherichia coli OP50", "value": 80, "unit": "%"}]}, {"smiles": "Cc1c(C)c2c(c(C)c1O)CCC(C)(C(=O)O)O2", "note": "(stereo not shown) [Trolox]", "values": [{"measurement": "activity of removing ROS on DPPH in the test tube", "setting": "[2]", "value": "strong activity of removing ROS"}]}, {"smiles": "c1ccc2c(c1)[I+]c1ccccc1-2", "note": "[DPI]", "values": [{"measurement": "decrease of membrane potential induced by PQ", "setting": "[1]; pretreated with DDS (3 hours) or DPI (30 minutes), then 1 mM PQ 24 hours, FIG. 29B", "value": "meaningfully maintained"}, {"measurement": "shape of mitochondria after PQ (MitoTracker)", "setting": "mitochondria", "value": "recovered, partially"}, {"measurement": "production of superoxide anion in the mitochondria", "setting": "[3]", "value": "suppress"}, {"measurement": "superoxide anion of cytoplasm produced by PQ (DHE assay)", "setting": "[4]", "value": "suppressed"}]}, {"smiles": "CC(=O)N[C@@H](CS)C(=O)O", "note": "[NAC, N-acetyl-L-cystein]", "values": [{"measurement": "production of superoxide anion in the mitochondria", "setting": "[3]", "value": "suppress"}, {"measurement": "superoxide anion of cytoplasm produced by PQ (DHE assay)", "setting": "[4]", "value": "suppressed"}]}]}
